The target in data set [1] is Acetylcholinesterase (Electrophorus electricus, UniProt O42275). Put plainly: Inhibition of electric eel AChE using acetylthiocholine iodide as substrate measured after 15 mins by Ellman's method.
The test system of data set [2] is BuChE (butyrylcholinesterase). Description: Inhibition of rat serum BuChE at 50 uM using S-butylthiocholine iodide as substrate measured after 15 mins by Ellman's method relative to control. Particulars: probe S-butylthiocholine iodide.
Data set [3] has as its target T1, Amine oxidase [flavin-containing] A (Homo sapiens, UniProt P21397).
T1 sequence (P21397 whole entry): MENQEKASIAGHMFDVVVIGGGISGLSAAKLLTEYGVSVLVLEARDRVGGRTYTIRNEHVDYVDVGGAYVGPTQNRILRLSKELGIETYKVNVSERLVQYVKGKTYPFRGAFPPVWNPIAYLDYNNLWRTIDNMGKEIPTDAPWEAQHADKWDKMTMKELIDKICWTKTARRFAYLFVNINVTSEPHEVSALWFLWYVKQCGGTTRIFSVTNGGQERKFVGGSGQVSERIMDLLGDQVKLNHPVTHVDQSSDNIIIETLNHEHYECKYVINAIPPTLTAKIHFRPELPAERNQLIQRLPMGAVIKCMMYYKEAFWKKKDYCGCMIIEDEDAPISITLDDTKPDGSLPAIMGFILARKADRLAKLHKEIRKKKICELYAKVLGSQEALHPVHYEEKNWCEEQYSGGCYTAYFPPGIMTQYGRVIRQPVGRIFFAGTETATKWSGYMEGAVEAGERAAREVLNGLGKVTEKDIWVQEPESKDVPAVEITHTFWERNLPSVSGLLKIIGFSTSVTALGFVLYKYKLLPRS
Description: Inhibition of recombinant human MAO-A expressed in baculovirus infected BTI insect cells using kynuramine as substrate after 30 mins by fluorimetric method.

For data set [4], the target named is T2, Amine oxidase [flavin-containing] B (Homo sapiens, UniProt P27338).
T2 sequence (P27338 whole entry): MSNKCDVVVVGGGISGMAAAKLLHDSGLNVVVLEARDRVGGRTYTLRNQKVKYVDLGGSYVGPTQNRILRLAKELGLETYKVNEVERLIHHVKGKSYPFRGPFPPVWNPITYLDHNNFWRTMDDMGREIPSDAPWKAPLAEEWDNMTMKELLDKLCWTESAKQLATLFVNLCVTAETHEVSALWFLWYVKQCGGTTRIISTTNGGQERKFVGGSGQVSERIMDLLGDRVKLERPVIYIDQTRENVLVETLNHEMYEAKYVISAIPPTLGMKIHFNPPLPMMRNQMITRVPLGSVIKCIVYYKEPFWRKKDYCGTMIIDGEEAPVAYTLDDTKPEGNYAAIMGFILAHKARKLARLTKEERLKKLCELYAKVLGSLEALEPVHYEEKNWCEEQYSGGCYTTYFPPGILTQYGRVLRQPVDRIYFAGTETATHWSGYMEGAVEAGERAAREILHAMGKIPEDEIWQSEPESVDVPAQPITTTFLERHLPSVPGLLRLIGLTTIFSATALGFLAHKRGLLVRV
Description: Inhibition of recombinant human MAO-B expressed in baculovirus infected BTI insect cells using kynuramine as substrate after 30 mins by fluorimetric method. Format: cell-based.

The species entered for data set [5] is Homo sapiens. Description: Selectivity index, ratio of IC50 for recombinant human MAO-A expressed in baculovirus infected BTI insect cells to IC50 for recombinant human MAO-B expressed in baculovirus infected BTI insect cells.
The target of data set [6] is Acetylcholinesterase (Electrophorus electricus) (UniProt O42275). Description: Mixed-type inhibition of electric eel AChE using acetylthiocholine iodide as substrate preincubated for 15 mins followed by substrate addition by Lineweaver-Burk plot analysis.
Sequence of Acetylcholinesterase (Electrophorus electricus) (O42275 24-633 limits assumed): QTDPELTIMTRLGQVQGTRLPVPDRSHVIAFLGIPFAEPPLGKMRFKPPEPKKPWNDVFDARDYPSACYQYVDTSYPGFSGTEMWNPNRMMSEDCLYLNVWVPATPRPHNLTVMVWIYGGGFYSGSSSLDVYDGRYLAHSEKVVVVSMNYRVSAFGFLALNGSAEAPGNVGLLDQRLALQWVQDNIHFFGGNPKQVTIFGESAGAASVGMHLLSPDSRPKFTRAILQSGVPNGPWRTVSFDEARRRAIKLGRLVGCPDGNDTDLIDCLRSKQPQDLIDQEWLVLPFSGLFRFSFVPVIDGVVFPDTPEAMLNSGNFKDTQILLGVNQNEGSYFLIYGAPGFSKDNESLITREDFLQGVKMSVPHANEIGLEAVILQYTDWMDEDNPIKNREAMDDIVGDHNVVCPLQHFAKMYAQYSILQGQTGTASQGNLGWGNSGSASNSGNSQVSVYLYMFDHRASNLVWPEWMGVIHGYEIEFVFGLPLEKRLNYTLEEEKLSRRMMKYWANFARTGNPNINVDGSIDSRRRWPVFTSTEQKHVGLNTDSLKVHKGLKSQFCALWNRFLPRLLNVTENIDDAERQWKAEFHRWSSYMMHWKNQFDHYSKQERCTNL
The target of data set [7] is Amyloid-beta precursor protein (Homo sapiens) (UniProt P05067). Put plainly: Inhibition of self-induced amyloid beta (1 to 42) (unknown origin) aggregation at 25 uM measured after 24 hrs by ThT fluorescence assay relative to control.
Sequence of Amyloid-beta precursor protein (Homo sapiens) (P05067 whole entry): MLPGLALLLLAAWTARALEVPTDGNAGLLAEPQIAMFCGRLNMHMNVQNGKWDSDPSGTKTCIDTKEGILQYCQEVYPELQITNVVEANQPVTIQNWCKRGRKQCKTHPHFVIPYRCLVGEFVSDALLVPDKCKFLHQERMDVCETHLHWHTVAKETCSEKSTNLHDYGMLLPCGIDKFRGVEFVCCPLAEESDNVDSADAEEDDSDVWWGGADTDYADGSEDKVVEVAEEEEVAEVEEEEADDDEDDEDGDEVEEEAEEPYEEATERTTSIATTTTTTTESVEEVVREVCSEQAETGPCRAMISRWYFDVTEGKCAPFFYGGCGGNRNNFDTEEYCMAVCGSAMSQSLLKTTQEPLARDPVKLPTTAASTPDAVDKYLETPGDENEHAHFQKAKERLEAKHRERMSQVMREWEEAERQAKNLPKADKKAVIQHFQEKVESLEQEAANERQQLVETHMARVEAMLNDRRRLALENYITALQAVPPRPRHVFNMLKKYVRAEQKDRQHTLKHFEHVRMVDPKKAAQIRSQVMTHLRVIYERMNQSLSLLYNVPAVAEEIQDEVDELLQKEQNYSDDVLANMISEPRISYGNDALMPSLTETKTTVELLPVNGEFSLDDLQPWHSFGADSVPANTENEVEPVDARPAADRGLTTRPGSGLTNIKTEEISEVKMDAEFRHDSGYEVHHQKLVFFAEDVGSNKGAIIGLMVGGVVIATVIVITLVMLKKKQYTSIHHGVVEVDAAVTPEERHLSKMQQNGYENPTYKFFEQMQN
Data set [8] in a line: Inhibition of cupric ion-mediated amyloid beta (1 to 42) aggregation at 25 uM measured after 24 hrs by ThT fluorescence assay relative to control.
Data set [9] can be described thus: Antioxidant activity assessed as trolox equivalent of AAPH-induced radical scavenging activity at 5 uM incubated for 15 mins prior to APPH challenge measured every minute for 90 mins by ORAC-FL assay. The class given is functional.
Data set [10] can be described thus: Metal chelating activity assessed as Cu2+-compound complex formation at 37.5 uM after 30 mins by UV-visible spectrometry. Format: functional.
Data set [11] can be described thus: Metal chelating activity assessed as Fe2+-compound complex formation at 37.5 uM after 30 mins by UV-visible spectrometry. Format: functional.
Data set [12] is described as follows: Metal chelating activity assessed as Zn2+-compound complex formation at 37.5 uM after 30 mins by UV-visible spectrometry. Format: functional.
Data set [13] can be described thus: Metal chelating activity assessed as Al3+-compound complex formation at 37.5 uM after 30 mins by UV-visible spectrometry. Format: functional.
Data set [14] can be described thus: Metal chelating activity assessed as mole fraction of compound required to show 1:1.5 stoichiometry for Cu2+-compound complex at 37.5 uM after 30 mins by UV-visible spectrometry. The class given is functional.
The nature of data set [15]: Cytotoxicity against human SH-SY5Y cells assessed as cell viability at 1 uM after 24 hrs by MTT assay relative to control. Format: cell-based. Particulars: read-out: Activity.
Data set [16] in a line: Cytotoxicity against human SH-SY5Y cells assessed as cell viability at 10 uM after 24 hrs by MTT assay relative to control. The class given is cell-based. Particulars: read-out: Activity.
Data set [17] is described as follows: Cytotoxicity against human SH-SY5Y cells assessed as cell viability at 100 uM after 24 hrs by MTT assay relative to control. Format: cell-based. Particulars: read-out: Activity. Background: Tetrazolium dyes change colour on reduction, which living cells bring about.
A short description of data set [18]: Permeability of the compound at 100 ug/ml after 18 hrs by PAMPA. Format: physicochemical. Particulars: read-out: permeability. (In PAMPA a lipid-coated filter parts donor from acceptor wells.)
A short description of data set [19]: Inhibition of rat serum BuChE using S-butylthiocholine iodide as substrate measured after 15 mins by Ellman's method.

Active and inactive are the calls of the source. The rule behind the calls is not given here.

Sequence of Acetylcholinesterase (O42275 whole entry): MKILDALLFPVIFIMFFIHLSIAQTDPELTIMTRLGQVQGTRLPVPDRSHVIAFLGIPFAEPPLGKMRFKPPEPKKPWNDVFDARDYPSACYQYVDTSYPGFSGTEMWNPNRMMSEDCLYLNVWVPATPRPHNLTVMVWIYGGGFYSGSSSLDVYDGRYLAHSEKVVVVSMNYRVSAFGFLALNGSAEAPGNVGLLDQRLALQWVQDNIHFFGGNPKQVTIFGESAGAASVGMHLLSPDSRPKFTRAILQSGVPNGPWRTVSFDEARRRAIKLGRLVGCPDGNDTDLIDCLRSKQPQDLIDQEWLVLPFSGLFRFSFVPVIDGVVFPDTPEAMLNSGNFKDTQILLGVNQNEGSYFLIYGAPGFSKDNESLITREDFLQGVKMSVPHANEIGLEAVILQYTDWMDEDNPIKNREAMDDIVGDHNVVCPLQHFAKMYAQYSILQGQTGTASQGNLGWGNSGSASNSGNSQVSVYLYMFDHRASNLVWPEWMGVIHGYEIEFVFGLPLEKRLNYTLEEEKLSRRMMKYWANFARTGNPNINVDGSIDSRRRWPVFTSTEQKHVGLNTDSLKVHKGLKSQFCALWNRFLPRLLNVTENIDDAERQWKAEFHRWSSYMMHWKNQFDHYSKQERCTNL

In the case of `CCN(CCCCCCOc1cc(O)c2c(=O)c3ccccc3sc2c1)Cc1ccccc1N(C)C`, the IC50 in data set [1] was 590 nM; in data set [3] it was 1010 nM; in data set [4], 900 nM. This compound also gave an inhibition at 0.25 h, 50 µM in data set [2] of 28.7%. For the same compound, the Ratio IC50 in data set [5] was determined as 1.12. Also, the inhibition result in data set [6] was “Active”. Further, the inhibition in data set [7] is 74.8%; in [8], 87.7%. The results for the Activity in data set [9] and in data set [14] were 0.74 µMequiv/µM and 1.5 molar ratio, respectively. The result in data set [10] and in data set [11] was Active. The outcome in [12] and in data set [13] was inactive. The viability at 24 h, 1 µM in [15] stood at 99.7%. For the same compound, the viability at 24 h, 10 µM in data set [16] was found to be 96.8%. Also, in [17], the viability at 24 h, 100 µM worked out at 68.1%. Further, in [18], the Papp at 18 h, 100 ug/ml stood at 3.49 ×10⁻⁶ cm/s.
Regarding `COc1cc2c(cc1OC)C(=O)C(CC1CCN(Cc3ccccc3)CC1)C2` (centres undefined) [DONEPEZIL], the 50% inhibitory concentration (IC50) in data set [19] was found to be 21400 nM.

Broadly, the IC50 is the concentration that inhibits the measured activity by half. The term inhibition denotes the percentage by which the read-out fell short of the control.

The values are drawn from ChEMBL document CHEMBL3992562, “Multifunctional thioxanthone derivatives with acetylcholinesterase, monoamine oxidases and β-amyloid aggregation inhibitory activities as potential agents against Alzheimer's disease” (Bioorg Med Chem, 2017).
